In the first test the test system is GUMC-403. In words: viability at highest tested concentration (max response) relative to DMSO (% of DMSO control); higher = less cytotoxic. The settings on record: library / dose series: MIPE library, 11-point 1:3 dilution; top concentration 23 µM; 48 h. In outline: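 In 1536-well plates, 700 GUMC-403 papilloma cells per well, taken from a patient and grown by conditional reprogramming, were seeded in 5 μL F + Y medium and incubated overnight at 37 °C. Compounds were pinned in at 23 nL in an 11-point 1:3 series, and left for 48 h before CellTiter-Glo luminescence was read on a ViewLux against vehicle (100%) and empty (0%) wells. Reported values are viability at the highest tested concentration relative to vehicle control.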
In the case of `N=C1N[C@H]2[C@H](CS[C@H]2CCCCC(=O)O)N1`, the viability was determined as 134.

The test is the same for the next values; noted with them: library / dose series: MIPE library, 11-point 1:3 dilution; top concentration 46.1 µM; 48 h.
In the case of `Cc1ccc(NC(=O)Nc2cc(C(F)(F)F)ccc2F)cc1Nc1ccc2c(c1)NC(=O)/C2=C\c1ccc[nH]1`, the viability turned out to be 99.8.
`COc1nccc(-c2c(-c3ccc(F)cc3)ncn2C2CCNCC2)n1` yielded a viability of 131.
`CCOc1cc(/C=C2/C(=O)N(c3ccccc3)N=C2C)cc(Cl)c1OCC(=O)OC` yielded a viability of 99.2.
For `CN1C(=O)C(=C/2N(C(=O)N(C3CC3)C(=O)C2=C1/NC4=CC=C(I)C=C4F)C5=CC=CC(=C5)NC(C)=O)\C`, the viability stood at 87.7.
`C[C@H](c1ccc(F)cc1CCCC(=O)O)N(c1cc(F)ccc1F)[S+](=O)([O-])c1ccc(Cl)cc1` registered a viability of 93.9.
Same read-out and setting: the same measure for `CC=CC1=C(C(=O)O)N2C(=O)[C@@H](NC(=O)[C@H](N)c3ccc(O)cc3)[C@H]2SC1.O`: 147.
In turn, `Nc1ccc([S+](=O)([O-])Nc2ccccn2)cc1` gave a viability of 115.
Same read-out and setting: the same measure for `COc1cccc2c1C(=O)c1c(O)c3c(c(O)c1C2=O)C[C@@](O)(C(=O)CO)C[C@@H]3O[C@H]1C[C@H](N)[C@H](O[C@H]2CCCCO2)[C@H](C)O1`: 57.9; for `Cc1nnc(N[S+](=O)([O-])c2ccc(N)cc2)s1`: 113; for `C=CC(=O)Nc1ccc2ncnc(Nc3ccc(OCc4cccc(F)c4)c(Cl)c3)c2c1`: 26.3.
Regarding `CC(=O)O[C@H]1C[C@@H]2CC[C@@H]3[C@H](CC[C@@]4(C)[C@H]3C[C@H]([N+]3(C)CCCCC3)[C@@H]4OC(C)=O)[C@@]2(C)C[C@@H]1[N+]1(C)CCCCC1`, the viability turned out to be 122.
On the same count and under the same terms, the same measure for `O=C1CC[C@@]2(O)[C@H]3Cc4ccc(O)c5c4[C@@]2(CCN3CC2CC2)[C@H]1O5`: 137.
With `O=C(O)c1ccc(O)c2ncc(N3CCOCC3)cc12`, the viability came to 96.
On to `CC[C@H]1OC(=O)[C@H](C)[C@@H](O[C@H]2C[C@@](C)(OC)[C@@H](O)[C@H](C)O2)[C@H](C)[C@@H](O[C@@H]2O[C@H](C)C[C@H](N(C)C)[C@H]2O)[C@](C)(O)C[C@@H](C)CN(C)[C@H](C)[C@@H](O)[C@]1(C)O`, for which the viability is 109.
The same measure, in the same setting: the same measure for `NC(=O)c1ncn([C@@H]2O[C@H](CO)[C@@H](O)[C@H]2O)c1O`: 116; for `Cc1cccc(C)c1NC(=O)CN1CCCC1=O`: 106; for `C=C1C(=O)O[C@@H]2[C@H]3O[C@]3(C)CC/C=C(\C)CC[C@@H]12`: 108.
In the case of `CNC(=O)c1cc(Oc2ccc(NC(=O)Nc3ccc(Cl)c(C(F)(F)F)c3)cc2)ccn1`, the viability amounted to 87.
The same measure, in the same setting: the same measure for `CC/1=C/C(=O)N(O)/C(=C1)C2CCCCC2`: 27.2; for `Cn1cc(-c2ccc3ncc(Cc4ccc5ncccc5c4)n3n2)cn1`: 123; for `CC(=O)O[C@H]1C[C@@H]2CC[C@@H]3[C@H](CC[C@@]4(C)[C@H]3C[C@H]([N+]3(C)CCCCC3)[C@@H]4OC(C)=O)[C@@]2(C)C[C@@H]1N1CCCCC1`: 130.
In the case of `COc1ccc(/C=C/C(=O)Nc2ccccc2C(=O)O)cc1OC`, the viability is 106.
Same read-out and setting: the same measure for `Cc1ccc(/C=N/NC(=O)c2ccccc2Oc2ccccc2)o1`: 92.
`CC1=CC=C2\N=C/3N(CC[C@@]3(O)C(=O)C2=C1)C4=CC=CC=C4`: the viability was found to be 104.
Turning to `N[S+](=O)([O-])c1cc(Cl)c(Cl)c([S+](N)(=O)[O-])c1`, the viability was 109.
On to `Cc1ccc(C(C)(O)c2nc3ccccc3s2)c(C)c1` (stereo not given), for which the viability came out at 115.
Same read-out and setting: the same measure for `O=C(CCCCCCC(=O)Nc1ccc([C@H]2O[C@@H](CSc3nc(-c4ccccc4)c(-c4ccccc4)o3)C[C@@H](c3ccc(CO)cc3)O2)cc1)NO`: 115.
Compound `COc1ccc(/C=C\c2cc(OC)c(OC)c(OC)c2)cc1O` returned a viability of 93.7.
The same measure, in the same setting: the same measure for `CC(C)[C@@H](N(CCCN)C(=O)C1=CC=C(C)C=C1)C/2=N/C3=CC(=CC=C3C(=O)N2CC4=CC=CC=C4)Cl`: 121; for `COc1ccc(Nc2nccc(NCCO)n2)cc1`: 99.9; for `C[C@H](NC(=O)Cc1cc(F)cc(F)c1)C(=O)N[C@H](C(=O)OC(C)(C)C)c1ccccc1`: 79.4.
Same read-out and setting: the same measure for `Cc1cc(O)c2c(c1)C(=O)c1cccc(O)c1C2=O`: 95.5; for `CCC[C@H](Nc1nc(-c2ccc(NC(=O)NCC)c(OC)c2)ncc1C)c1cccnc1`: 94; for `CN(C)CCN(C)CCc1ccc(Cl)c(Cl)c1`: 124.
For the compound `NC/1=N/C(=O)C2=C(N1)[N](C=N2)[C@@H]3C[C@H](O)[C@@H](CO)C3=C`, the viability stood at 100.
For the compound `COCCCN1CCC(NC(=O)c2cc(Cl)c(N)c3c2OCC3)CC1`, the viability turned out to be 76.9.
For the compound `CCc1cc(/C(C)=N/OCc2ccc(C3CCCCC3)c(C(F)(F)F)c2)ccc1CN1CC(C(=O)O)C1`, the viability stood at 116.
Same read-out and setting: the same measure for `Cc1cc(C(C)(C)C)c(O)c(C)c1CC1=NCCN1`: 120; for `Cc1cc(Nc2cc(N3CCN(C)CC3)nc(Sc3ccc(NC(=O)C4CC4)cc3)n2)[nH]n1`: 86.3; for `CNc1nc(-c2ccc3c(N)n[nH]c3c2)cc(N2C[C@@H](C(=O)NC3CCCCC3)CC[C@H]2C)n1`: 87.8.
Same read-out and setting: the same measure for `NCC/1=C/NC(=S)N1[C@H]2CCC3=C(F)C=C(F)C=C3C2`: 95.9.
Same read-out and setting: the same measure for `Clc1cccc(-c2nnnn2Cc2cccnc2)c1Cl`: 113; for `C[C@@H](N)C1CC[C@@H](CC1)C(=O)NC2=CC=NC=C2` (stereo not given in full): 152; for `COc1ccc2[nH]cc(CCNC(C)=O)c2c1`: 106.
The compound `CC(=O)SC[C@@H](C)C(=O)N1CCC[C@H]1C(=O)N[C@@H](Cc1ccccc1)C(=O)O` came in with a viability of 135.
On the same count and under the same terms, the same measure for `C[C@@H]1C[C@H]2[C@@H]3\C=C(C)/C4=C/C5=C(C[C@]4(C)[C@H]3[C@@H](O)C[C@]2(C)[C@@]1(O)C(=O)COC(C)=O)C=N[N]5C6=CC=CC=C6`: 107; for `C[S+](=O)([O-])c1ccc([C@@H](O)[C@@H](CO)NC(=O)C(Cl)Cl)cc1`: 126.
On the same count and under the same terms, the same measure for `CCC(C)N1\N=C/N(C1=O)C2=CC=C(C=C2)N3CCN(CC3)C4=CC=C(OC[C@H]5CO[C@@](C[N]6C=NC=N6)(O5)C7=CC=C(Cl)C=C7Cl)C=C4` (stereo not given in full): 101; for `c1cc(OCCN2CCCCC2)cc(-c2n[nH]c3ccc(-c4nc[nH]n4)cc23)c1`: 111.
Same read-out and setting: the same measure for `OCCN(CCO)c1nc(N2CCCCC2)c2nc(N(CCO)CCO)nc(N3CCCCC3)c2n1`: 77; for `CC1(C)O[C@@H]2C[C@H]3[C@@H]4CCC5=CC(=O)C=C[C@]5(C)[C@@]4(F)[C@@H](O)C[C@]3(C)[C@]2(C(=O)CO)O1`: 117; for `O=C(c1ccc(OCCN2CCCCC2)cc1)c1c(-c2ccc(O)cc2)sc2cc(O)ccc12`: 94.4.
On to `O=C1Nc2ccc(I)cc2/C1=C/c1cc(Br)c(O)c(Br)c1`, for which the viability was 146.

Staying with this test, now noted: library / dose series: MIPE library, 11-point 1:3 dilution; top concentration 92.2 µM; 48 h.
`Cc1cn([C@H]2C=C[C@@H](CO)O2)c(=O)[nH]c1=O`: the viability worked out at 92.2.

The record behind these values is the supplement of paper PMC6723410.
